From PubChem BioAssay (NCI)
Values joined by “and” are separate entries in the source; they are usually repeats but may differ in a detail not shown here. Equal values may be shown once.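 Dose response: 5 concentrations. Exposure: 48 h. Format: 96-well plates. Endpoint: linear interpolation; highest concentration if not reached. GI50: concentration for 50% inhibition of growth. TGI: total growth inhibition.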

Key:
Test in all cases: NCI tumour cell line growth inhibition, 48 h
A498 renal = tested on: A498 renal
CAKI-1 renal = tested on: CAKI-1 renal
EKVX NSCLC = tested on: EKVX NSCLC
HCT-116 colon = tested on: HCT-116 colon
HOP-18 NSCLC = tested on: HOP-18 NSCLC
HT29 colon = tested on: HT29 colon
IGROV1 ovarian = tested on: IGROV1 ovarian
KM12 colon = tested on: KM12 colon
LOX IMVI melanoma = tested on: LOX IMVI melanoma
LXFL 529 NSCLC = tested on: LXFL 529 NSCLC
MCF7 breast = tested on: MCF7 breast
MOLT-4 leukemia = tested on: MOLT-4 leukemia
NCI-H23 lung = tested on: NCI-H23 lung
NCI/ADR-RES ovarian = tested on: NCI/ADR-RES ovarian
RXF-631 renal = tested on: RXF-631 renal
SF-539 CNS = tested on: SF-539 CNS
SN12K1 renal = tested on: SN12K1 renal
SNB-78 CNS = tested on: SNB-78 CNS

Structure (SMILES) | GI50 (CAKI-1 renal) [µM] | TGI (CAKI-1 renal) | GI50 (EKVX NSCLC) | TGI (EKVX NSCLC) | TGI (HCT-116 colon) | TGI (HOP-18 NSCLC) [µM] | TGI (HT29 colon) | TGI (IGROV1 ovarian) | GI50 (KM12 colon) | TGI (KM12 colon) | GI50 (MCF7 breast) | TGI (MOLT-4 leukemia) | TGI (NCI/ADR-RES ovarian) | TGI (SN12K1 renal) [µM] | further results
C1CN1c1nc(N2CC2)nc(N2CC2)n1 | 1.87 | 24.8 µM and 27.5 µM | 22.2 µM | 55.5 µM and 47.4 µM | 33.4 µM and 15.6 µM | 68.9 | 64.8 µM and 35.4 µM | 33.4 µM and 21.8 µM | 13 µM | 42.3 µM and 35.9 µM | 1.39 µM | 15.3 µM | 38.6 µM and 12.8 µM | 26 | TGI (A498 renal): 25.2 µM; GI50 (IGROV1 ovarian): 11.1 µM; TGI (LOX IMVI melanoma): 24.7 µM and 14.3 µM; TGI (LXFL 529 NSCLC): 29.7 µM; TGI (MCF7 breast): 27.1 µM and 28.9 µM; GI50 (NCI-H23 lung): 5.55 µM; TGI (NCI-H23 lung): 20 µM and 15 µM; GI50 (NCI/ADR-RES ovarian): 3.48 µM; TGI (RXF-631 renal): 42.3 µM; GI50 (SF-539 CNS): 1.78 µM; TGI (SF-539 CNS): 12.8 µM and 8.65 µM
C[C@@]1(CO)[C@H](O)CC[C@@]2(C)[C@H]1CC[C@H]1C[C@@H]3C[C@@]12CC[C@@]3(O)COC(=O)CN | 2.36 | 78.7 µM | 96.8 µM and 79.3 µM | 64.5 µM and > 500 µM and 171 µM | 65.7 µM and > 500 µM and 155 µM | > 500 | 50.9 µM and 183 µM | > 500 µM and 181 µM | > 500 µM and 101 µM | 73.7 µM and > 500 µM and 238 µM | 3.17 µM and 21.2 µM and 3.87 µM | 53.7 µM and 162 µM | 79.9 µM and > 500 µM and 163 µM | > 500 | GI50 (A498 renal): 7.15 µM and 50.9 µM and 8.34 µM; GI50 (HCT-116 colon): 2.03 µM and 19.5 µM and 4.63 µM; GI50 (HOP-18 NSCLC): > 500 µM and 87.4 µM; GI50 (HT29 colon): 13.2 µM; GI50 (LOX IMVI melanoma): 3.62 µM and 6.65 µM; GI50 (MOLT-4 leukemia): 2.55 µM; GI50 (SN12K1 renal): 7.45 µM and 1.49 µM; GI50 (SNB-78 CNS): > 500 µM; TGI (SNB-78 CNS): > 500 µM
